Data taken from PubChem BioAssay (NCI).
Where “and” joins values, the source holds several entries; their conditions need not be identical. Equal entries are not always repeated.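 Assay format: 96-well plates, 48-hour exposure. GI50: concentration for 50% inhibition of growth. Definition used: TGI = concentration required for complete inhibition of growth.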

Columns and labels:
Assay in all cases: NCI-60 cell line screen, 48 h
[1] = system: OVCAR-3 ovarian
[2] = system: SR leukemia
[3] = system: OVCAR-4 ovarian
[4] = system: A498 renal
[5] = system: HCT-116 colon
[6] = system: CCRF-CEM leukemia
[7] = system: U251 CNS
[8] = system: NCI-H522 lung
[9] = system: CAKI-1 renal
[10] = system: DU-145 prostate

Row | SMILES | TGI [1] | TGI [2] [µM] | TGI [3] | TGI [4] | TGI [5] [µM] | TGI [6] | TGI [7] | TGI [8] | TGI [9] | GI50 [10] [µM] | TGI [10] [µM] | GI50 [1] [µM] | GI50 [2] [µM] | GI50 [9] [µM] | GI50 [3] [µM] | GI50 [5] [µM] | GI50 [6] [µM] | GI50 [7] [µM] | GI50 [4] [µM] | GI50 [8] [µM]
1 | COc1cc(/C=C2\[C@H]3c4c(c(OC)c(C)c(OC)c4OC)C[C@@H](C(=O)N2Cc2ccccc2)N3C(=O)OC(C)C)c(OC)c(C)c1OC | > 100 µM | > 100 | > 100 µM | > 100 µM | > 100 | > 100 µM | > 100 µM | > 100 µM | – | – | – | – | – | – | – | – | – | – | – | –
2 | COc1cc2nc(Sc3c([N+](=O)[O-])ncn3C)[nH]c2cc1OC | > 100 µM | 60.2 | > 100 µM | > 100 µM | > 100 | – | > 100 µM | – | 37.2 µM | – | – | – | – | – | – | – | – | – | – | –
3 | COC(=O)C(C(=O)C(=O)Nc1ccccc1C(C)=O)c1nc2ccc(Cl)cc2[nH]c1=O (stereo unspecified) | > 100 µM | – | > 100 µM | > 100 µM | > 100 | > 100 µM | > 100 µM | – | > 100 µM | – | – | – | – | – | – | – | – | – | – | –
4 | COC(=O)C1(C(=O)OC)CC2c3c(c4ccccc4n3C)CC(C1=O)N2Cc1ccccc1 (stereo unspecified) | > 100 µM | – | > 100 µM | > 100 µM | > 100 | > 100 µM | > 100 µM | > 100 µM | > 100 µM | – | – | – | – | – | – | – | – | – | – | –
5 | O=C(O)c1ccc2c(c1Nc1ccccc1)C(=O)c1ccccc1C2=O | > 100 µM | > 100 | > 100 µM | – | > 100 | > 100 µM | > 100 µM | – | 47.1 µM | 82.8 | > 100 | 20.7 | 41 | 16 | 86.1 | 26.6 | 40.5 | 47 | – | –
6 | Cn1ncc2c(/N=C/c3cccs3)[nH]c(=S)nc21 | > 76.7 µM | – | > 100 µM | 27.5 µM | 98 | > 100 µM | > 100 µM | > 100 µM | > 100 µM | 25.6 | > 70.5 | 29.2 | – | 33.4 | > 59 | 33.9 | 55.7 | 43.1 | 0.689 | > 68.2
7 | Cc1ccccc1NC(=O)C(=O)C(c1cnc2ccc([N+](=O)[O-])cc2n1)[N+](=O)[O-] (stereo unspecified) | – | > 100 | > 100 µM | > 100 µM | > 100 | > 100 µM | > 100 µM | > 100 µM | > 100 µM | – | – | – | – | – | – | – | – | – | – | –
8 | COc1ccc(/C(C)=C(\c2ccc(Cl)cc2)c2ccc(OCCN3CCCC3)cc2)cc1F | 8.38 µM | 6.47 | 6.62 µM | – | 5.64 | 10.7 µM | 7.17 µM | 8.94 µM | 6.69 µM | 3.9 | 8.28 | 3.93 | 1.18 | 3.43 | 3.21 | 2.05 | 4.24 | 3.15 | – | 4.35
9 | Nc1ncnc(NC2C=C(CO)C(O)C2O)c1[N+](=O)[O-] (stereo unspecified) | > 100 µM | > 100 | > 100 µM | > 100 µM | 75.4 | > 100 µM | > 100 µM | – | > 100 µM | – | – | – | – | – | – | – | – | – | – | –
10 | O=C(O)c1ccc(O)c(N=Nc2cc(S(=O)(=O)O)c3ccccc3c2O)c1 | > 100 µM | > 100 | > 100 µM | > 100 µM | 37.4 | – | > 100 µM | – | > 100 µM | – | – | – | – | – | – | – | – | – | – | –
11 | COc1ccc(NC(=O)C(=O)C2CNC(=O)NC2=O)c(OC)c1 (stereo unspecified) | > 100 µM | > 100 | > 100 µM | – | > 100 | > 100 µM | > 100 µM | > 100 µM | > 100 µM | – | – | – | – | – | – | – | – | – | – | –
12 | CC(C)NCC(O)COC(=O)c1cccs1 (stereo unspecified) | > 100 µM | – | > 100 µM | – | – | > 100 µM | – | > 100 µM | > 100 µM | – | – | – | – | – | – | – | – | – | – | –
13 | N=C1N(c2ccccc2)C(=O)C23CCCC2C13N1CCOCC1 (stereo unspecified) | > 100 µM | > 100 | > 100 µM | – | > 100 | > 100 µM | > 100 µM | > 100 µM | > 100 µM | – | – | – | – | – | – | – | – | – | – | –
14 | CC(=O)O[C@H]1C(=O)O[C@@H]2C[C@H]3C(C)=CC(=O)[C@@H](O)[C@]3(C)[C@H]3[C@@]4(O)OC[C@]32[C@@H]1[C@@H](C)[C@H]4O | 0.172 µM and 0.12 µM | – | 0.758 µM and 0.409 µM | 1.19 µM and 0.385 µM | – | 0.073 µM and 0.572 µM | 0.049 µM and 0.0797 µM | 0.226 µM and 0.0582 µM | 2.36 µM and 2.13 µM | – | 0.176 | 0.0134 | – | 0.0752 | 0.0394 | < 0.01 | 0.015 | < 0.01 | 0.187 | < 0.0116
15 | CC1(C)OC(C(N)=O)=C(C(N)=O)O1 | > 100 µM | > 100 | > 100 µM | > 100 µM | > 100 | > 100 µM | > 100 µM | > 100 µM | > 100 µM | – | – | – | – | – | – | – | – | – | – | –
16 | NC(CNO)C(=O)O (stereo unspecified) | > 100 µM | – | > 100 µM | > 100 µM | > 100 | – | > 100 µM | > 100 µM | > 100 µM | – | > 100 | – | – | – | – | – | – | – | – | –
17 | COC(=O)C(=O)C(C(=O)C(=O)Nc1ccc(Cl)cc1C)c1nc2ccc(C(=O)c3ccccc3)cc2[nH]c1=O (stereo unspecified) | > 100 µM | > 100 | > 100 µM | > 100 µM | > 100 | > 100 µM | > 100 µM | > 100 µM | > 100 µM | – | – | – | – | – | – | – | – | – | – | –
18 | Cc1ccc([N+](=O)[O-])cc1NC(=O)C(=O)Cc1occc(=O)c1O | > 100 µM | > 100 | – | > 100 µM | – | > 100 µM | > 100 µM | > 100 µM | > 100 µM | – | – | – | – | – | – | – | – | – | – | –
19 | CCC(C)OC(=O)C1C2CCC(O2)C1C(=O)O (stereo unspecified) | > 100 µM | 40.3 | > 100 µM | > 100 µM | > 56.3 | > 100 µM | > 67.3 µM | > 100 µM | > 100 µM | – | – | – | – | – | – | – | – | – | – | –
20 | C#CCOCn1cnc2c(=S)nc[nH]c21 | > 100 µM | – | > 100 µM | > 100 µM | – | > 100 µM | > 100 µM | > 100 µM | > 100 µM | – | – | – | – | – | – | – | – | – | – | –
21 | O=C1C(=O)N(C(=O)c2ccc(Cl)c(Cl)c2)c2ccc(Cl)cc21 | > 100 µM | > 100 | > 100 µM | 63.8 µM | – | > 100 µM | > 100 µM | – | – | – | – | – | – | – | – | – | – | – | – | –
22 | C=C[C@]1(C)CCC2=C(CCC3C2(C)CCC[C@]3(C)CO)C1 (stereo partly specified) | > 100 µM | > 100 | > 100 µM | > 100 µM | > 100 | > 100 µM | 63.8 µM | 52.5 µM | > 100 µM | – | – | – | – | – | – | – | – | – | – | –
